Measured values as given in US20230285570A1, “THERAPEUTICALLY USEFUL CURE-PRO MOLECULES FOR E3 LIGASE MEDIATED DEGRADATION OF PROTEINS, AND METHODS OF MAKING AND USING THEM” (CORNELL UNIVERSITY, priority 2020, published 2023).

What was measured:
Type in all cases: cell-based
Aiolos and Ikaros [1] = assay: Aiolos and Ikaros expression in Namalwa cells, Western blot; conditions: monomer alone, 100 nM-10 μM, 24 h
Experimental: (§1) Namalwa, Ramosm HeLa, MCF7, or HT29 HCT116 cells (2.5-3×10^6) were treated for 24 hours with the indicated compounds solubilized in DMSO. The cells were washed in ice-cold PBS and were then lysed in RIPA lysis buffer (150 mM NaCl, 5 mM EDTA, 1% NP-40, 0.5% sodium deoxycholate, 0.1% SDS, 50 mM Tris, pH 8.0.) with Roche protease inhibitor complete cocktail and phosphatase inhibitors (10 mM sodium fluoride, 10 mM sodium pyrophosphate, 1 mM sodium orthovanadate and 20 mM β-glycerophosphate). The total protein concentrations were determined by Bradford Protein Assay (Pierce) and 10-20 μg of protein was loaded onto 4-15% Tris-Glycine gradient gels (Biorad). After standard gel electrophoresis, the separated proteins were transferred to PVDF membrane by wet transfer. The immunoblots were then blocked for 1 hour in 5% skim milk in TBST or 5% BSA in TBST, according to manufacturer's instructions, before an overnight incubation at 4° C. with indicated antibodies and membranes. Membranes were then incubated with the appropriate horseradish peroxidase-conjugated secondary antibodies (1:5,000 dilution) for 1 h at room temperature and the bands were visualized using the Clarity Max Western ECL Substrate (Biorad) and the ChemiDoc Imaging System (Biorad). Signal was detected with ECL Western Blotting Substrate (Pierce) and X-ray film processed with a Konica SRX-101 X-ray film processor or captured by Bio-Rad's Chemidoc Imaging system.
(§2) Namalwa (FIG. 78) or Ramos (FIG. 79) cells (5×10^6) were treated for 24 h with the compounds solubilized in DMSO. Compounds were added at 100 nM-10 μM each. Standardized protein samples were electrophoresed and imaged as described in the immunoblotting section above. FIGS. 78 and 79 depict the effects of the E3 ubiquitin ligase CURE-PRO monomer ligands (100 nM-10 μM, 24 h) targeting Cereblon on the expression of Aiolos and Ikaros, two downstream proteins that are known to be ubiquitinated and degraded after IMiDs bind to CRBN.

Aiolos and Ikaros [2] = assay: Aiolos and Ikaros expression in Ramos cells, Western blot; conditions: monomer alone, 100 nM-10 μM, 24 h
Experimental: as §1, §2

MV-4-11 cells = assay: CellTiter-Glo cell viability, MV-4-11 cells; conditions: monomer alone, MV-4-11, 24 h, 1 nM-100 μM
Experimental: CellTiter-Glo® 2.0 Cell Viability Assay (Promega) was carried out following the manufacturer's recommendations. Cells were seeded at a density of 1000 cells/well in a white 96 well plates (Corning, #3917) in a total volume of 100 μl with respective monomers, combinations of BRD ligands together with E3 ligase ligands or vehicle control treatment. After a 72 h incubation, 100 ul of the CellTiter-Glo® substrate was added per well and luminescence was read on a Spectramax M5 (Molecular Devices). Dose-response curves were generated using Graphpad Prism software.
MV-4-11 cells (5×10^4) were treated for 24 hours with the sample compounds solubilized in DMSO. The compounds were added at 1 nM-100 μM each. Cellular viability was determined using the CellTiter-Glo® Luminescent Cell Viability Assay (Promega) described above. FIGS. 19-22 depict the CURE-PRO-mediated loss of cellular viability for BRD monomers (JQ1 derivatives comprising of catechol linkers), and CRBN ligand, 8049 (pomalidomide derivatives comprising boronic acid linkers) combined in a 1:1 ratio.
MV-4-11 cells (1×10^4) were treated for 72 hours with the compounds solubilized in DMSO. Compounds were added at 10 nM-100 μM each. Cellular viability was determined using the CellTiter-Glo® Luminescent Cell Viability Assay (Promega) described above. FIGS. 47-54 depict the CURE-PRO-mediated loss of cellular viability for BRD monomers (JQ1 derivatives comprising of boronic acid linkers), and CRBN ligands, 8046, 8047 and 8066 (pomalidomide derivatives comprising diol linkers) combined in a 1:1 ratio.

Compound	expression of Aiolos and Ikaros (Aiolos and Ikaros [1])	expression of Aiolos and Ikaros (Aiolos and Ikaros [2])	loss of cellular viability (MV-4-11 cells)
O=C1CCC(N2C(=O)c3cccc(CNC(=O)C4C[C@H]5C[C@@H]4[C@H](O)[C@@H]5O)c3C2=O)C(=O)N1 (stereo in doubt) [compound 8066, (1S,4R,5R,6S)—N-((2-(2,6-dioxopiperidin-3-yl)-1,3-dioxoisoindolin-4-yl)methyl)-5,6-dihydroxybicyclo[2.2.1]heptane-2-carboxamide]	largely maintain Aiolos and Ikaros expression levels	largely maintain Aiolos and Ikaros expression levels	
O=C1CCC(N2C(=O)c3cccc(CNC(=O)c4ccc(O)c(O)c4)c3C2=O)C(=O)N1 (centres unmarked) [compound 8046, N-((2-(2,6-dioxopiperidin-3-yl)-1,3-dioxoisoindolin-4-yl)methyl)-3,4-dihydroxybenzamide]	largely maintain Aiolos and Ikaros expression levels	largely maintain Aiolos and Ikaros expression levels	
O=C1CCC(N2C(=O)c3cccc(CNC(=O)c4cccc(O)c4O)c3C2=O)C(=O)N1 (centres unmarked) [compound 8047, N-((2-(2,6-dioxopiperidin-3-yl)-1,3-dioxoisoindolin-4-yl)methyl)-2,3-dihydroxybenzamide]	largely maintain Aiolos and Ikaros expression levels	largely maintain Aiolos and Ikaros expression levels	
O=C1CCC(N2C(=O)c3cccc(CNC(=O)c4ccc(B(O)O)cc4)c3C2=O)C(=O)N1 (centres unmarked) [compound 8048]	largely maintain Aiolos and Ikaros expression levels	largely maintain Aiolos and Ikaros expression levels	
O=C1CCC(N2C(=O)c3cccc(CNC(=O)c4cccc(B(O)O)c4)c3C2=O)C(=O)N1 (centres unmarked) [compound 8049]	largely maintain Aiolos and Ikaros expression levels	largely maintain Aiolos and Ikaros expression levels	little loss of viability was observed
